# Experimental data from PMC10376691, “Inhibition of Acetylcholinesterase and Amyloid-β Aggregation by Piceatannol and Analogs: Assessing In Vitro and In Vivo Impact on a Murine Model of Scopolamine-Induced Memory Impairment” (Antioxidants, 2023).
# pIC50: −log10 of the molar value. “Also recorded” adds a separate entry of the source. Where two headings read alike, the source gives them in different places.
# Columns and labels:
# [1] = biological target: T1, recombinant human AChE (Homo sapiens, UniProt P22303); assay: AChE inhibitory activity in vitro (acetylthiocholine/DTNB); type: biochemical
# T1 construct: purchased R&D Systems Inc. (Minneapolis, MN, USA)
# Procedure: Commercially synthesized acetylthiocholine iodide was hydrolyzed using AChE to release thiocholine, which was coupled with DTNB to generate the yellowish 5-thio-2-nitrobenzoate for in vitro AChE activity assays. For the AChE inhibitory activity assay, each analog was dissolved in the DMSO, and final concentrations of 100, 200, and 500 μM were used for comparisons. An equal volume of DMSO instead of the sample solution was used in the blank group and expressed as 100% AChE activity. […] AChE inhibition (%) was calculated as follows: [(A405blank − A405sample)/(A405blank)] × 100%.
# [2] = after oral RSV 75 mg/kg, athymic nude mice; cited from earlier work
# [3] = Neurite outgrowth and cell viability, two-color fluorescence assay kit; type: cell-based; details: human, 3-day or 6-day treatment, green fluorescence, read-out: cell viability relative to the control
# Procedure: (§1) The SH-SY5Y cells were grown in DMEM/F-12 medium supplemented with 10% FBS at 37 °C under a humidified atmosphere and 5% CO2 [41]. […] The MTT was used to evaluate cell viability, and the absorbance at 570 nm was determined. The DMSO used instead of the sample solution was blank (recognized as 100%), and each treatment was expressed as relative cell viability (%). To study the stimulation of neurite outgrowth, the SH-SY5Y cells (5000 cells/well) were seeded on a 96-well plate pre-coated with poly-L-lysine and then cultured in the DMEM/F-12 medium containing 10% FBS overnight at 37 °C under a humidified atmosphere and 5% CO2. After being removed from the culture medium, each PIC, GNT, RHA, and isoRHA (at a final concentration of 10 μM in the 0.1%DMSO) or 0.1% DMSO (the control) was added to the DMEM/F-12 medium containing 10% FBS and refreshed every three days. On day 3 and day 6, each of the culture plates was photographed using an inverted microscope (ECLIPSE TS100, Nikon Instruments Inc., Tokyo, Japan). The culture medium was removed and washed with PBS, and the cultured cells in each well were fixed with 4% paraformaldehyde. To measure cell viability and quantify the neurite outgrowths of the treated SH-SY5Y in a 96-well plate, the neurite outgrowth staining kit (a two-color fluorescence assay kit) was used, following a previous report or the protocol in the manufacturer’s manual (publication number: MAN0007224), which included a cell membrane-stained fluorescent dye (orange-red fluorescence), a cell viability indicator (green fluorescence), and a reagent for background masking. […] The value for the control was recognized as 100%, and each treatment was expressed relative to the control.
# [4] = tested on: SH-SY5Y cells; assay: as above; type: cell-based; details: 10 μM, 3-day or 6-day treatment, orange-red fluorescence; vs control
# Procedure: as §1
# [5] = tested on: scopolamine-induced amnesiac ICR mice; assay: Passive avoidance test in scopolamine-induced amnesiac ICR mice; type: in vivo, mouse; details: PIC 50 mg/kg oral once a day, donepezil 5 mg/kg oral, scopolamine 1 mg/kg i.p.
# Source text: The scopolamine-induced cognitive dysfunctions of amnesiac ICR mice were used to evaluate the effects of PIC pre-treatments on the improvement of learning and memory functions, following previous reports. The animal experimental protocols were reviewed and approved by the Institutional Animal Care and Use Committee, Taipei Medical University (No. LAC-2021-0488). After a two-week acclimation, the mice were randomly divided into four groups (N = 5 for each group). In the first stage, the mice in the PIC group were orally pre-treated with PIC (50 mg/kg) using a feeding tube, once a day from day 1 to day 7; the mice in the blank, control, and donepezil groups were treated with the same volume of distilled water from day 1 to day 7. In the second stage, on day 8 and day 9, the mice in the PIC group and the donepezil group were orally treated once with PIC (50 mg/kg) and donepezil (positive control, 5 mg/kg), respectively, using a feeding tube; the mice in the blank and the control groups were treated with the same volume of distilled water. After 30 min, each mouse was injected intraperitoneally with scopolamine (1 mg/kg, dissolved in PBS), and the mice in the blank group were each injected with an equal volume of PBS instead of the scopolamine solution. Again, 30 min after the scopolamine or PBS injection, a learning and memory evaluation was performed on each mouse with the use of a 2-day passive avoidance test. All the mice were sacrificed at the end of the animal experiments, and the brain tissues of the mice in each group were isolated, weighted, and stored at −80 °C for further use.
# A 2-day passive avoidance test, which included an acquisition trial on the first day and a retention trial on the second day, was used to evaluate the learning and memory functions of the scopolamine-induced cognitive dysfunctions of amnesiac ICR mice after PIC and donepezil treatments, following previous reports. A shuttle chamber (AccuScan Instruments Inc., Columbus, OH, USA) with a light box and a dark box separated by a sliding door was used. On day 8, after acclimation around the shuttle chamber for 30 min, each scopolamine-injected or PBS-injected mouse was placed in the light box for the acquisition trial. Once the mouse entered the dark box, the step-through latency (s) was recorded, and the sliding door was closed at the same time. Immediately after, the mouse was administered an electric foot shock (0.3 mA for 3 s) via the wired metal floor and then sent back to the cage. […] The step-through latency (period of time that each mouse stayed in the light box) was recorded again. […] The protein content of the whole brain extracts from the mice was quantified using the BCA protein kit, with bovine serum albumin as the standard protein. […]
# [6] = rats, cited from earlier work
# [7] = oral administration to rats; cited from earlier work
# [8] = co-administration of PIC and RSV, each at 180 μmol/kg
# T1 sequence (P22303 32-614): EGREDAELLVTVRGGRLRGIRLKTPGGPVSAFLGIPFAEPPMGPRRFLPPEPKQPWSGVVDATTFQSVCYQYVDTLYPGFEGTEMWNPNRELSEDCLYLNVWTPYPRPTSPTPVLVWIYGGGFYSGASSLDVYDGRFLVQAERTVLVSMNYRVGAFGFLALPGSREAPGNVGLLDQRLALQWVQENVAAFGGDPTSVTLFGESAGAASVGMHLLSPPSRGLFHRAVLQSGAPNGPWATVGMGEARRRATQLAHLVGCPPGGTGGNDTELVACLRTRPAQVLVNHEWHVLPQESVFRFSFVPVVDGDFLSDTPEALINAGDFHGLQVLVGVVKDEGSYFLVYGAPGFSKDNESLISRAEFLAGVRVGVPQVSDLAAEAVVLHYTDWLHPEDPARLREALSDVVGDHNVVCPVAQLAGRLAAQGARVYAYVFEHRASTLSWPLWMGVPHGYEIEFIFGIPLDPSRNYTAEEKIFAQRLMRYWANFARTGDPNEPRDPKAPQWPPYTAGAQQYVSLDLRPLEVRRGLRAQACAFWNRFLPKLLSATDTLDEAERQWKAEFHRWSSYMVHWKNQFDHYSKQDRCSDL
smiles,measurement,setting,value
"Oc1cc(O)cc(C=Cc2ccc(O)c(O)c2)c1 [PIC, 3,5,3′,4′-tetrahydroxystilbene]",pIC50,[1],3.55
same,"AChE inhibitory capacity, fold higher than that of RSV",[1]; vs RSV,1.23 fold
same,PIC detected in the liver,[2],11.50 nmol/g
same,PIC detected in the plasma,[2],5.25 µmol/L
same,PIC detected in the skin,[2],2.4 nmol/g
same,viability at 10 µM,[3],80%
same,stimulation of neurite outgrowths,[4],not PIC nor GNT; also recorded: not PIC and GNT
same,"step-through latency, acquisition trial (first day)",[5],no significant difference among the groups
same,"step-through latency, retention trial (second day)",[5]; vs control p < 0.05,improved learning behavior; also recorded: longer staying time
same,AUC0–8h of intact PIC/AUC0–8h of total PIC metabolites,[6]; PIC 90 μmol/kg,18.6%
same,AUC0–8h of intact PIC/AUC0–8h of total PIC metabolites,[6]; PIC 180 μmol/kg,23.9%
same,AUC0–8h of intact PIC/AUC0–8h of total PIC metabolites,[6]; PIC 360 μmol/kg,25.1%
same,"AUC0–8h in plasma, intact compound",[6]; [8],8.6 µM·h
same,AUC0–8h of intact PIC/AUC0–8h of total PIC metabolites,[6]; [8],16.3%
same,"AUC0–8h in plasma, intact compound","[6]; intragastric, 90 μmol/kg",4.3 µM·h
same,"AUC0–8h in plasma, intact compound","[6]; intragastric, 180 μmol/kg",12.3 µM·h
same,"AUC0–8h in plasma, intact compound","[6]; intragastric, 360 μmol/kg",20.6 µM·h
same,bioavailability,[7],50.7%
same,half-life,[7],4.23 h
